Experimental data from publication PMC9848300, “Discovery of novel enasidenib analogues targeting inhibition of mutant isocitrate dehydrogenase 2 as antileukaemic agents” (Journal of Enzyme Inhibition and Medicinal Chemistry, 2023).
Like-named read-outs stand apart in the source and are kept apart here.

Columns and labels:
IGROV1 = test: NCI 60 antitumor screening (single dose / five doses); format: cell-based; conditions: Homo sapiens
A498 = test: as above; format: cell-based; conditions: Homo sapiens
MDA-MB-468 = test: as above; format: cell-based; conditions: Homo sapiens
LOX IMVI = test: as above; format: cell-based; conditions: Homo sapiens, read-out: Growth inhibition percentage (GI %)
HT29 = test: as above; format: cell-based, human; conditions: Homo sapiens
HL-60(TB) = test: as above; format: cell-based; conditions: Homo sapiens
SK-MEL-2 = test: as above; format: cell-based; conditions: Homo sapiens
HCT-116 = test: as above; format: cell-based; conditions: Homo sapiens
EKVX = test: as above; format: cell-based; conditions: Homo sapiens, read-out: Growth inhibition percentage (GI %)
MDA-MB-231/ATCC = test: as above; format: cell-based; conditions: Homo sapiens
COLO 205 = test: as above; format: cell-based; conditions: Homo sapiens
ACHN = test: as above; format: cell-based; conditions: Homo sapiens, read-out: Growth inhibition percentage (GI %)
T-47D = test: as above; format: cell-based; conditions: Homo sapiens, T47D, read-out: Growth inhibition percentage (GI %)
SF-295 = test: as above; format: cell-based; conditions: Homo sapiens
SF-539 = test: as above; format: cell-based; conditions: Homo sapiens
SNB-75 = test: as above; format: cell-based; conditions: Homo sapiens
[1] = test system: 60 human subpanel cancer cell lines; test: NCI 60 antitumor screening, mean over the panel (single dose); format: cell-based; conditions: mean over 60 cancer cell lines, single dose 10 μM
How it was run: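 NCI-60 one-dose screen. Dose: 10 μM. Lines: 60 human tumour lines, nine tissue types. Output: GI% = 100 − G%.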

CCRF-CEM = test: NCI 60 antitumor screening (single dose / five doses); format: cell-based; conditions: Homo sapiens, read-out: Growth inhibition percentage (GI %)
UACC-62 = test: as above; format: cell-based; conditions: Homo sapiens
SN 12C = test: as above; format: cell-based; conditions: Homo sapiens, SN12C, read-out: Growth inhibition percentage (GI %)
SK-MEL-5 = test: as above; format: cell-based; conditions: Homo sapiens
SW-620 = test: as above; format: cell-based, human; conditions: Homo sapiens
NCI/ADR-RES = test: as above; format: cell-based; conditions: Homo sapiens, read-out: Growth inhibition percentage (GI %)
UO-31 = test: as above; format: cell-based; conditions: Homo sapiens
MALME-3M = test: as above; format: cell-based; conditions: Homo sapiens, read-out: Growth inhibition percentage (GI %)
MOLT-4 = test: as above; format: cell-based; conditions: Homo sapiens
HCT-15 = test: as above; format: cell-based; conditions: Homo sapiens
K-562 = test: as above; format: cell-based; conditions: Homo sapiens
SK-MEL-28 = test: as above; format: cell-based; conditions: Homo sapiens
[2] = IGROV-1, IGROV1 (ovarian cancer), single dose 10 μM, read-out: Growth inhibition percentage (GI %)
[3] = A498 (renal cancer), single dose 10 μM, read-out: Growth inhibition percentage (GI %)
[4] = MDA-MB-468 (breast cancer), single dose 10 μM, read-out: Growth inhibition percentage (GI %)
[5] = LOX IMVI (melanoma), single dose 10 μM
[6] = HT-29, HT29 (colon cancer), single dose 10 μM, read-out: Growth inhibition percentage (GI %)
[7] = HL-60(TB) (leukaemia), single dose 10 μM, read-out: Growth inhibition percentage (GI %)
[8] = SK-MEL-2 (melanoma), single dose 10 μM, read-out: Growth inhibition percentage (GI %)
[9] = HCT-116 (colon cancer), single dose 10 μM, read-out: Growth inhibition percentage (GI %)
[10] = EKVX (non-small cell lung cancer), single dose 10 μM
[11] = MDA-MB-231/ATCC (breast cancer), single dose 10 μM, read-out: Growth inhibition percentage (GI %)
[12] = COLO 205 (colon cancer), single dose 10 μM, read-out: Growth inhibition percentage (GI %)
[13] = ACHN (renal cancer), single dose 10 μM
[14] = T-47D (breast cancer), single dose 10 μM
[15] = SF-295 (CNS cancer), single dose 10 μM, read-out: Growth inhibition percentage (GI %)
[16] = SF-539 (CNS cancer), single dose 10 μM, read-out: Growth inhibition percentage (GI %)
[17] = SNB-75 (CNS cancer), single dose 10 μM, read-out: Growth inhibition percentage (GI %)
[18] = CCRF-CEM (leukaemia), single dose 10 μM
[19] = UACC-62 (melanoma), single dose 10 μM, read-out: Growth inhibition percentage (GI %)
[20] = SN 12C (renal cancer), single dose 10 μM
[21] = SK-MEL-5 (melanoma), single dose 10 μM, read-out: Growth inhibition percentage (GI %)
[22] = SW-620 (colon cancer), single dose 10 μM, read-out: Growth inhibition percentage (GI %)
[23] = NCI/ADR-RES (ovarian cancer), single dose 10 μM
[24] = UO-31 (renal cancer), single dose 10 μM, read-out: Growth inhibition percentage (GI %)
[25] = MALME-3M (melanoma), single dose 10 μM
[26] = MOLT-4 (leukaemia), single dose 10 μM, read-out: Growth inhibition percentage (GI %)
[27] = HCT-15 (colon cancer), single dose 10 μM, read-out: Growth inhibition percentage (GI %)
[28] = K562, K-562 (leukaemia), single dose 10 μM, read-out: Growth inhibition percentage (GI %)
[29] = SK-MEL-28 (melanoma), single dose 10 μM, read-out: Growth inhibition percentage (GI %)

## Clc1cccc(/C=N/Nc2nc(N/N=C/c3cccc(Cl)c3)nc(N3CCCCC3)n2)c1 [compound 7d, 2,4-Bis[(E)-2-[(3-Chlorophenyl)methylidene]hydrazin-1-yl]-6-(piperidin-1-yl)-1,3,5-triazine]
IGROV1; [2]
  inhibition at 10 µM: -4.79%
A498; [3]
  inhibition at 10 µM: 7.8%
MDA-MB-468; [4]
  inhibition at 10 µM: 23.7%
LOX IMVI; [5]
  inhibition at 10 µM: -4.97%
HT29; [6]
  inhibition at 10 µM: 14.4%
HL-60(TB); [7]
  inhibition at 10 µM: 3.01%
SK-MEL-2; [8]
  inhibition at 10 µM: 13.9%
HCT-116; [9]
  inhibition at 10 µM: 2.75%
EKVX; [10]
  inhibition at 10 µM: 21.6%
MDA-MB-231/ATCC; [11]
  inhibition at 10 µM: -16.1%
COLO 205; [12]
  inhibition at 10 µM: -1.88%
ACHN; [13]
  inhibition at 10 µM: -1.44%
T-47D; [14]
  inhibition at 10 µM: 24%
SF-295; [15]
  inhibition at 10 µM: 7.02%
SF-539; [16]
  inhibition at 10 µM: -5.25%
SNB-75; [17]
  inhibition at 10 µM: -2.48%
[1]
  Mean GI %: 7.03%
CCRF-CEM; [18]
  inhibition at 10 µM: 25%
UACC-62; [19]
  inhibition at 10 µM: 20.8%
SN 12C; [20]
  inhibition at 10 µM: 7.63%
SK-MEL-5; [21]
  inhibition at 10 µM: 19.4%
SW-620; [22]
  inhibition at 10 µM: -2.95%
NCI/ADR-RES; [23]
  inhibition at 10 µM: 4.8%
UO-31; [24]
  inhibition at 10 µM: 23.2%
MALME-3M; [25]
  inhibition at 10 µM: -9.06%
MOLT-4; [26]
  inhibition at 10 µM: 31.3%
HCT-15; [27]
  inhibition at 10 µM: 20.2%
K-562; [28]
  inhibition at 10 µM: 17%
SK-MEL-28; [29]
  inhibition at 10 µM: 3.79%

## Fc1cccc(/C=N/Nc2nc(N/N=C/c3cccc(F)c3)nc(N3CCCCC3)n2)c1 [compound 7e, 2,4-Bis[(E)-2-[(3-Fluorophenyl)methylidene]hydrazin-1-yl]-6-(piperidin-1-yl)-1,3,5-triazine]
IGROV1; [2]
  inhibition at 10 µM: 9.61%
A498; [3]
  inhibition at 10 µM: 15.7%
MDA-MB-468; [4]
  inhibition at 10 µM: 9.17%
LOX IMVI; [5]
  inhibition at 10 µM: 14.2%
HT29; [6]
  inhibition at 10 µM: 8.7%
HL-60(TB); [7]
  inhibition at 10 µM: 31.9%
SK-MEL-2; [8]
  inhibition at 10 µM: 0.55%
HCT-116; [9]
  inhibition at 10 µM: 9.65%
EKVX; [10]
  inhibition at 10 µM: 29.3%
MDA-MB-231/ATCC; [11]
  inhibition at 10 µM: -0.43%
COLO 205; [12]
  inhibition at 10 µM: -0.08%
ACHN; [13]
  inhibition at 10 µM: 8.6%
T-47D; [14]
  inhibition at 10 µM: 30.6%
SF-295; [15]
  inhibition at 10 µM: 15.6%
SF-539; [16]
  inhibition at 10 µM: -3.16%
SNB-75; [17]
  inhibition at 10 µM: -14.6%
[1]
  Mean GI %: 10.18%
CCRF-CEM; [18]
  inhibition at 10 µM: 41.3%
UACC-62; [19]
  inhibition at 10 µM: 25.8%
SN 12C; [20]
  inhibition at 10 µM: 5.08%
SK-MEL-5; [21]
  inhibition at 10 µM: 32.1%
SW-620; [22]
  inhibition at 10 µM: -7.5%
NCI/ADR-RES; [23]
  inhibition at 10 µM: 23.9%
UO-31; [24]
  inhibition at 10 µM: 22.1%
MALME-3M; [25]
  inhibition at 10 µM: -0.5%
MOLT-4; [26]
  inhibition at 10 µM: 40.4%
HCT-15; [27]
  inhibition at 10 µM: 29.2%
K-562; [28]
  inhibition at 10 µM: 38.6%
SK-MEL-28; [29]
  inhibition at 10 µM: 9.32%

## O=[N+]([O-])c1cccc(/C=N/Nc2nc(N/N=C/c3cccc([N+](=O)[O-])c3)nc(N3CCCCC3)n2)c1 [compound 7f, 2,4-Bis[(E)-2-[(3-Nitrophenyl)methylidene]hydrazin-1-yl]-6-(piperidin-1-yl)-1,3,5-triazine]
IGROV1; IGROV-1, read-out: Growth inhibition percentage (GI %)
  inhibition at 10 µM: 51.3%
A498; A498, read-out: Growth inhibition percentage (GI %)
  inhibition at 10 µM: 18.7%
MDA-MB-468; MDA-MB-468, read-out: Growth inhibition percentage (GI %)
  inhibition at 10 µM: 26.4%
LOX IMVI; LOX IMVI
  inhibition at 10 µM: 49.1%
HT29; HT-29, read-out: Growth inhibition percentage (GI %)
  inhibition at 10 µM: 36.3%
HL-60(TB); HL-60, read-out: Growth inhibition percentage (GI %)
  inhibition at 10 µM: 42.8%
SK-MEL-2; SK-MEL-2, read-out: Growth inhibition percentage (GI %)
  inhibition at 10 µM: 36%
HCT-116; HCT-116, read-out: Growth inhibition percentage (GI %)
  inhibition at 10 µM: 47%
EKVX; EKVX
  inhibition at 10 µM: 34.9%
MDA-MB-231/ATCC; MDA-MB-231, read-out: Growth inhibition percentage (GI %)
  inhibition at 10 µM: 0.87%
COLO 205; COLO 205, read-out: Growth inhibition percentage (GI %)
  inhibition at 10 µM: 24.1%
ACHN; ACHN
  inhibition at 10 µM: 37.8%
T-47D
  inhibition at 10 µM: 47.5%
SF-295; SF-295, read-out: Growth inhibition percentage (GI %)
  inhibition at 10 µM: 28.3%
SF-539; SF-539, read-out: Growth inhibition percentage (GI %)
  inhibition at 10 µM: 7.37%
SNB-75; SNB-75, read-out: Growth inhibition percentage (GI %)
  inhibition at 10 µM: -0.71%
[1]
  Mean GI %: 30.94%
CCRF-CEM; CCRF-CEM
  inhibition at 10 µM: 65.1%
UACC-62; UACC-62, read-out: Growth inhibition percentage (GI %)
  inhibition at 10 µM: 43.7%
SN 12C
  inhibition at 10 µM: 31.9%
SK-MEL-5; SK-MEL-5, read-out: Growth inhibition percentage (GI %)
  inhibition at 10 µM: 52.4%
SW-620; SW-620, read-out: Growth inhibition percentage (GI %)
  inhibition at 10 µM: 16.5%
NCI/ADR-RES; NCI/ADR-RES
  inhibition at 10 µM: 32.8%
UO-31; UO-31, read-out: Growth inhibition percentage (GI %)
  inhibition at 10 µM: 48.4%
MALME-3M; Malme-3M
  inhibition at 10 µM: 7.94%
MOLT-4; MOLT-4, read-out: Growth inhibition percentage (GI %)
  inhibition at 10 µM: 57.2%
HCT-15; HCT-15, read-out: Growth inhibition percentage (GI %)
  inhibition at 10 µM: 53.5%
K-562; K562, read-out: Growth inhibition percentage (GI %)
  inhibition at 10 µM: 67.6%
SK-MEL-28; SK-MEL-28, read-out: Growth inhibition percentage (GI %)
  inhibition at 10 µM: 31.4%
